Source: patent US20170008888A1 (KYORIN PHARMACEUTICAL CO., LTD., priority 2014, published 2017)
Where two headings read alike, the source gives them in different places.

System: murine Th17 cells
Test: Cytokine response by in vitro-polarized murine Th17 cells stimulated with PMA/ionomycin
Type: cell-based
Settings: Mus musculus, PMA/ionomycin 20 h
Description: Purification of murine CD4+ T cells: To isolate mouse splenocytes, freshly isolated mouse spleens were minced in culture media (RPMI 1640 (Lonza, Allendale, N.J.) containing 10% (v/v) charcoal-dextran filtered, heat inactivated FBS (Omega Scientific, Tarzana, Calif.), 0.05 mM 2-Mercaptoethanol (Sigma-Aldrich, St. Louis, Mo.), and 1×Pen/Strep Amphotericin B (Lonza)), using a sterile razor blade then pushed through 70 and 40 μm cell strainers. Cells were resuspended in ACK Lysing Buffer (Lonza) for 3 minutes at room temperature to lyse the red blood cells. CD4+ T cells were isolated from the mouse splenocytes using the EasySep negative selection mouse CD4+ T cell isolation kit (Stemcell, Vancouver, Canada) according to manufacturer's instructions briefly as follows: Unwanted cells were specifically labeled by incubation with a cocktail of biotinylated antibodies directed against cell surface antigens on mouse cells of hematopoietic origin (CD8a, CD11b, CD11c, CD19, CD45R/B220, CD49b, TCRγ/δ, and TER119). Labeled cells were then magnetically removed using streptavidin-bound magnetic beads, leaving the desired CD4+ T cells.
In vitro mouse Th17 differentiation: Mouse CD4+ T cells isolated as above were polarized into Th17 cells as follows: Tissue culture-treated 100 mm plates (Corning, Corning, N.Y.) were coated with 2 μg/ml purified NA/LE hamster anti-mouse CD3e clone 145-2C11 antibody (BD Biosciences, San Jose, Calif.) overnight at 4° C. Each coated plate was seeded with ˜2-3 e6 mouse CD4+ T cells in polarization media consisting of culture media (RPMI 1640/FBS/2-Mercaptoethanol/Pen/Strep Amphotericin B) supplemented with: recombinant mouse IL-6 (50 ng/ml), […] (50 ng/ml), IL-23 (50 ng/ml)(R&D Systems, Minneapolis, Minn.), recombinant human TGF1β (5 ng/ml) (Cell Signaling Technology, Danvers, Mass.), anti-CD28 clone 37.51 (10 μg/ml)(BD Biosciences, San Jose, Calif.), anti-IL-2 clone JES6-1A12 (1 μg/ml), anti-IL-4 clone 11B11 (10 μg/ml), and anti-IFNγ clone XMG1.2 (10 μg/ml). All recombinant mouse cytokines and anti-mouse neutralizing antibodies were purchased from eBioscience (San Diego, Calif.) unless otherwise specified. Cells were incubated in the above Polarization media for 3 d at 37° C. in a humidified atmosphere at 5% CO2. After 3 d, cells were re-polarized as above, except for the following cytokine and neutralizing antibody concentration changes: recombinant mouse IL-6 (40 ng/ml), recombinant human TGFβ (1 ng/ml), anti-CD28 clone 37.51 (5 μg/ml), anti-IL-2 clone JES6-1A12 (0.5 μg/ml), anti-IL-4 clone 11B11 (5 μg/ml), and anti-IFNγ clone XMG1.2 (5 μg/ml). Cells were maintained under the above conditions for an additional 3 d at 37° C. in humidified atmosphere at 5% CO2 for a total of 6 days of polarization.
Inhibition of cytokine response by in vitro-polarized murine Th17 cells stimulated with PMA/ionomycin: Murine Th17 cells, polarized as described above, were seeded at 2e6 cells/ml in culture media. Cells were pre-treated with test compounds (10 μM down by ⅕ in a 4-point serial dilution series) for 1 h at 37° C. in a humidified atmosphere at 5% CO2. Cells were then stimulated with 50 ng/ml phorbol 12-myristate 13-acetate (PMA)(Sigma-Aldrich, St. Louis, Mo.)+1 μg/ml ionomycin (Life Technologies, Grand Island, N.Y.) for 20 h at 37° C. in a humidified atmosphere at 5% CO2. Supernatant was collected and analyzed using Bio-Plex Pro Mouse Cytokine Th17 Panel A 6-Plex and the Bio-Plex Pro Mouse Cytokine Th17 Panel B 8-Plex (Bio-Rad Laboratories, Hercules, Calif.) as per manufacturer's protocols. Magnetic beads were read on the Bio-Plex MAGPIX multiplex reader instrument using the accompanying xPONENT 4.2 acquisition software (Bio-Rad Laboratories, Hercules, Calif.). Data were analyzed via the Bio-Plex Manager software v6.1 (Bio-Rad Laboratories).

[1] = read-out: EC50 (nM) of cytokine reduction, IFNγ
[2] = read-out: EC50 (nM) of cytokine reduction, IL-6
[3] = read-out: EC50 (nM) of cytokine reduction, IL-10
[4] = read-out: EC50 (nM) of cytokine reduction, IL-17A
[5] = read-out: EC50 (nM) of cytokine reduction, IL-21
[6] = read-out: EC50 (nM) of cytokine reduction, IL-22
[7] = read-out: EC50 (nM) of cytokine reduction, IL-23p19

SMILES | EC50 [1] [nM] | EC50 [2] [nM] | EC50 [3] [nM] | EC50 [4] [nM] | EC50 [5] [nM] | EC50 [6] [nM] | EC50 [7] [nM]
CCOc1cc(C(=O)NCC2CC2)ccc1Nc1cc2c(cn1)N(C)C(=O)c1ccccc1N2C [Compound 57] | 6930 | 2920 | 2150 | > 10000 | 3990 | 2120 | 840
CCOc1cc(C(=O)N2CCC(N3CCN(C)CC3)CC2)ccc1Nc1cc2c(cn1)N(C)C(=O)c1ccccc1N2C [Compound 61] | > 10000 | 1600 | 1090 | > 10000 | 4240 | 2980 | 800
CCOc1cc(C(=O)N2CCNCC2)ccc1Nc1cc2c(cn1)N(C)C(=O)c1ccccc1N2C [Compound 62] | 8540 | 2480 | 1820 | > 10000 | 4980 | 5010 | 1340
CCOc1cc(C(=O)N2CCC(N3CCN(C)CC3)CC2)ccc1Nc1cc2c(cn1)N(C)C(=O)c1occc1N2C [Compound 65] | > 10000 | 2380 | 979 | > 10000 | 8280 | 5080 | 940

Now those with a lower EC50 [1], led by results:

EC50 [1] [nM] | EC50 [2] [nM] | EC50 [3] [nM] | EC50 [4] [nM] | EC50 [5] [nM] | EC50 [6] [nM] | EC50 [7] [nM] | SMILES
4270 | 1740 | 577 | > 10000 | 4850 | 2630 | 480 | CCOc1cc(C(=O)N2CCC(N3CCCC3)CC2)ccc1Nc1cc2c(cn1)N(C)C(=O)c1ccccc1N2C [Compound 46, 3-(2-Ethoxy-4-(4-(pyrrolidin-1-yl)piperidine-1-carbonyl)phenylamino)-5,11-dimethyl-5H-benzo[e]pyrido[3,4-b][1,4]diazepin-10(11H)-one]
1770 | 1170 | 373 | 4980 | 2110 | 880 | 360 | CCOc1cc(C(=O)N2CC[C@@H](N(C)C)C2)ccc1Nc1cc2c(cn1)N(C)C(=O)c1ccccc1N2C [Compound 115]
